Several values for one entry are separate records, joined by “and”; a condition that tells them apart may be missing. Identical values can stand only once.
Tests used:
Assay type in all cases: in vivo
FAS = test: Short-term Paigen-diet NASH mouse model: hepatic FAS gene expression (RT-qPCR); settings: FAS relative expression to vehicle group, 21 days
Protocol: (§1) To investigate whether Compound #37 prevents the development of pathology associated with NASH and steatosis in an acute exploratory disease model, a study was conducted using a diet-induced acute liver steatosis model in mice. As described below, in this study, C57BL/6J mice were initiated on the Paigen diet and simultaneously treated with Compound #37 (5, 20, and 40 mg/kg/day) or vehicle control (20% HPβCD 10 mL/kg/day) by oral gavage for 21 days.
(§2) After acclimation, 8-week old male C57Bl/6J mice (Charles River) weighing about 25 g were randomized in 4 groups according their body weight and treated once daily around noon by oral gavage with vehicle, or Compound #37 at various for 21 days as follows: Group 1: vehicle-20% (2-hydroxypropyl)-β-cyclodextrin (HP-β-CD) (n=10); Group 2: Compound #37, 5 mg/kg (n=10) Group 3: Compound #37, 20 mg/kg (n=10) Group 4: Compound #37, 40 mg/kg (n=10). During the treatment period, body weight and food intake (measured over 24h) were measured 3 times per week and once a week, respectively. During the acclimation, all mice were fed a standard diet (Special Diets Services RM1 (E), product no. 801492) and tap water ad libitum. After the acclimation period, mice were fed until the end of the experiment with a 60% high fat Paigen diet (60 kcal % fat, 1.25% cholesterol, and 0.5% cholate; D11061901, Research Diet) and tap water ad libitum.
(§3) Gene expression analysis. Hepatic expression levels of genes involved in lipid metabolism (FAS, SREBP1, ACC1, SCD1), cholesterol metabolism (HMG-CoAR, LDLR), SREBP proteolysis (SCAP, INSIG1), ER stress (PERK), oxidative stress (NRF2), inflammation (MCP-1), and fibrosis (collagen 1α1) were quantified by RTqPCR. Expression level was normalized to 18S gene expression and relative expression to vehicle group was calculated with the […] method.

HMGCoA = test: Short-term Paigen-diet NASH mouse model: hepatic HMGCoA (HMG-CoAR) gene expression (RT-qPCR); settings: liver; for DDct: HMGCoA Dct relative to vehicle mean; for Dct: HMGCoA minus 18S; for 2DDct: HMGCoA relative expression to vehicle group, normalized to 18S; for HMGCoA: raw RT-qPCR value
Protocol: as §1, §2, §3

NRF2 = test: Short-term Paigen-diet NASH mouse model: hepatic NRF2 gene expression (RT-qPCR); parameters: key to ER and oxidative stress gene expression NRF2: Dct: Ct of gene minus Ct of 18S reference; key to ER and oxidative stress gene expression NRF2: 2DDct: expression relative to vehicle group, normalized to 18S (2^-ΔΔCt); settings: 21 days
Protocol: as §1
as §2, with “([…])” for “(n=10) Group 3: Compound #37, 20 mg/kg (n=10)”
as §3

MCP-1 = test: DIN mouse model: hepatic MCP-1 gene expression; settings: liver, 20 mg/kg group
Protocol: as §3
Male C57Bl/6J mice (8 weeks old) were housed in enriched ventilated cages (31×12.5×12.7 cm) throughout the experimental phase. Animals' cages litters were changed at least once a week. Animal were housed 5 per cage on inverted 12-hour light cycle (at 09:00 am lights off), 22±2° C. and 55±10% relative humidity. The acclimation period was 20 days. During the acclimation period, all mice were fed a standard diet (RM1 (E) 801492, SDS) and tap water ad libitum. After the acclimation period, mice were fed with the DIN diet (60% fat, cholesterol enriched) and fructose-enriched tap water ad libitum until the end of the experiment.
At 6 weeks of diet, mice were 4-hour fasted (09:00 am to 1:00 pm) and blood (150 μl/EDTA) was collected at 01:00 pm by retro-orbital bleeding under isoflurane anesthesia. Mice were then allocated in 2 homogenous groups (n=12/group) according to their plasma levels of ALT (average levels: 685U/L), AST (average levels: 627U/L) and HOMA-IR index (average value: 4.7), into 2 homogenous groups (see values at day 0 in Tables 15A and 15B ALT/AST and Tables 16A and 16B for HOMA-IR). Mice were then treated once daily by oral gavage with vehicle (Group 1) or Compound #37 at 20 mg/kg (Group 2) for 70 days.
Hepatic expression levels of genes involved in lipid (FAS, SREBP1, ACC1, SCD1), cholesterol metabolism (HMG-CoAR, LDLR), in SREBP proteolysis (SCAP, INSIG1), in ER stress (PERK), oxidative stress (NRF2), and inflammation (MCP-1) were not changed. However, expression of collagen 1α1, involved in liver fibrosis, was reduced by 66% in mice treated with Compound #37 (p<0.05 vs. vehicle).

[1] = Compound #37 5 mg/kg, group mean, n=10
[2] = Compound #37 5 mg/kg, individual animals, 5 mg/kg
[3] = Compound #37 20 mg/kg, group mean, n=6
[4] = Compound #37 20 mg/kg, individual animals, 20 mg/kg
[5] = individual animals, vs vehicle mean, 20 mg/kg

Structure (SMILES): CC(C)Cc1cc(-c2nc(-c3ccc(NS(=O)(=O)C(F)(F)F)cc3Cl)cs2)ccn1 [Compound 37, N-(3-chloro-4-(2-(2-isobutylpyridin-4-yl)thiazol-4-yl)phenyl)-1,1,1-trifluoromethanesulfonamide]
- 2DDct (FAS; 5 mg/kg, group mean): 1.12
- 2DDct (FAS; 5 mg/kg, individual animals, 5 mg/kg): 2.2 and 1.54 and 1.55 and 2.34 and 0.68 and 0.39 and 0.91 and 0.65 and 0.33 and 0.59
- 2DDct (FAS; 20 mg/kg, group mean): 1.18
- 2DDct (FAS; 20 mg/kg, individual animals, 20 mg/kg): 1.48 and 0.56 and 0.63 and 1.65 and 0.9 and 1.88
- DDct (HMGCoA; [1]): 0.21
- DDct (HMGCoA; [2]): −0.39 and 0.32 and 0.09 and −0.08 and 0.87 and 0.63 and −0.03 and 0.10 and 0.35 and 0.20
- DDct (HMGCoA; [3]): 0.33
- DDct (HMGCoA; [4]): 0.57 and 1.06 and 0.58 and −0.40 and 0.77 and −0.64
- Dct (HMGCoA; [1]): 13.1
- Dct (HMGCoA; [2]): 12.48 and 13.19 and 12.96 and 12.79 and 13.74 and 13.5 and 12.84 and 12.97 and 13.22 and 13.07
- Dct (HMGCoA; [3]): 13.2
- Dct (HMGCoA; [4]): 13.44 and 13.93 and 13.45 and 12.47 and 13.64 and 12.23
- 2DDct (HMGCoA; [1]): 0.89
- 2DDct (HMGCoA; [2]): 1.31 and 0.80 and 0.94 and 1.05 and 0.55 and 0.64 and 1.02 and 0.93 and 0.78 and 0.87
- 2DDct (HMGCoA; [3]): 0.88
- 2DDct (HMGCoA; [4]): 0.67 (2×) and 0.48 and 1.32 and 0.58 and 1.55
- HMGCoA (HMGCoA; [1]): 25.3
- HMGCoA (HMGCoA; [2]): 25.94 and 26.3 and 24.57 and 26.14 and 25.77 and 26.85 and 24.44 and 24.76 and 24.36 and 24.19
- HMGCoA (HMGCoA; [3]): 25.4
- HMGCoA (HMGCoA; [4]): 26.35 and 26.22 and 25.65 and 25.5 and 25.13 and 23.49
- ER and oxidative stress gene expression NRF2: 2DDct (NRF2; 5 mg/kg, group mean, n 10): 0.76
- ER and oxidative stress gene expression NRF2: 18S (NRF2; 5 mg/kg, group mean, n 10): 12.3
- ER and oxidative stress gene expression NRF2: DDct (NRF2; 5 mg/kg, group mean, n 10): 0.57
- ER and oxidative stress gene expression NRF2: Dct (NRF2; 5 mg/kg, group mean, n 10): 11.5
- ER and oxidative stress gene expression NRF2: NRF2 (NRF2; 5 mg/kg, group mean, n 10): 23.8
- ER and oxidative stress gene expression NRF2: 2DDct (NRF2; 5 mg/kg, individual animals): 0.76 and 0.49 and 0.57 and 1.91 and 0.32 and 0.4 and 0.82 and 1.02 and 0.67 and 0.68
- ER and oxidative stress gene expression NRF2: 18S (NRF2; 5 mg/kg, individual animals): 13.46 and 13.11 and 11.61 and 13.35 (2×) and 12.03 and 11.6 and 11.79 and 11.14 and 11.12
- ER and oxidative stress gene expression NRF2: DDct (NRF2; 5 mg/kg, individual animals): 0.4 and 1.02 and 0.81 and −0.93 and 1.66 and 1.32 and 0.29 and −0.03 and 0.58 and 0.56
- ER and oxidative stress gene expression NRF2: Dct (NRF2; 5 mg/kg, individual animals): 11.34 and 11.96 and 11.75 and 10.01 and 12.6 and 12.26 and 11.23 and 10.91 and 11.52 and 11.5
- ER and oxidative stress gene expression NRF2: NRF2 (NRF2; 5 mg/kg, individual animals): 24.8 and 25.07 and 23.36 (2×) and 24.63 and 25.61 and 22.83 and 22.7 and 22.66 and 22.62
- ER and oxidative stress gene expression NRF2: 2DDct (NRF2; 20 mg/kg, group mean, n 6): 1.08
- ER and oxidative stress gene expression NRF2: 18S (NRF2; 20 mg/kg, group mean, n 6): 12.2
- ER and oxidative stress gene expression NRF2: DDct (NRF2; 20 mg/kg, group mean, n 6): 0.03
- ER and oxidative stress gene expression NRF2: Dct (NRF2; 20 mg/kg, group mean, n 6): 11
- ER and oxidative stress gene expression NRF2: NRF2 (NRF2; 20 mg/kg, group mean, n 6): 23.2
- ER and oxidative stress gene expression NRF2: 2DDct (NRF2; 20 mg/kg, individual animals): 0.76 (2×) and 0.91 and 2.23 and 0.65 and 1.13
- ER and oxidative stress gene expression NRF2: 18S (NRF2; 20 mg/kg, individual animals): 12.91 and 12.29 and 12.2 and 13.03 and 11.49 and 11.26
- ER and oxidative stress gene expression NRF2: DDct (NRF2; 20 mg/kg, individual animals): 0.39 and 0.4 and 0.13 and −1.16 and 0.62 and −0.18
- ER and oxidative stress gene expression NRF2: Dct (NRF2; 20 mg/kg, individual animals): 11.33 and 11.34 and 11.07 and 9.78 and 11.56 and 10.76
- ER and oxidative stress gene expression NRF2: NRF2 (NRF2; 20 mg/kg, individual animals): 24.24 and 23.63 and 23.27 and 22.81 and 23.05 and 22.02
- MCP-1 Dct (MCP-1; individual animals, normalised to 18S, 20 mg/kg): 14.34 and 13.63 and 15.61 and 13.59 and 13.54 and 13.66 and 14.89 and 16.32 and 15.5 and 15.74 and 11.79
- MCP-1 2^DDct (MCP-1; [5]): 0.61 and 0.99 and 0.25 and 1.02 and 1.06 and 0.97 and 0.41 and 0.15 and 0.27 and 0.23 and 3.55
- MCP-1 DDct (MCP-1; [5]): 0.72 and 0.01 and 1.99 and −0.03 and −0.08 and 0.04 and 1.27 and 2.7 and 1.88 and 2.12 and −1.83
- MCP-1 (Ct) (MCP-1; individual animals, 20 mg/kg): 26.89 and 26.18 and 28.45 and 26.02 and 25.89 and 26.25 and 26.62 and 28.83 and 27 and 27.29 and 24.14
- MCP-1 2^DDct (MCP-1; mean, n 11): 0.87
- MCP-1 (Ct) (MCP-1; mean, n 11): 26.7
- MCP-1 DDct (MCP-1; mean, n 11): 0.80
- MCP-1 Dct (MCP-1; mean, n 11): 14.4

— patent US10183015B2, “Heterocyclic compounds and methods of use” (Medivation Technologies LLC, priority 2015, dated 2019)
